{
  "source": "ChEMBL document CHEMBL1201862",
  "about": "“PubChem BioAssay data set” (2004)",
  "key": {"[1]": {"assay": "A375 melanoma cell cytotoxicity, dose response, counter-screen for MITF inhibitor project, CellTiter-Glo luminescence, dry powder, set 2 (AID 624489);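 also: actives are compounds lowering A375 viability meaning general cytotoxicity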", "type": "functional, cell-based", "conditions": "A-375"}, "[2]": {"assay": "A375 melanoma cell viability loss, dose response, counter-screen for MITF inhibitor project, CellTiter-Glo luminescence, dry powder, set 4 (AID 624364);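 also: A375 melanoma cells are MITF independent so this is a counter screen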", "type": "functional, cell-based", "conditions": "A-375"}, "[3]": {"assay": "CFTR ΔF508 corrector activity in bronchial cells, dose response, human bronchial epithelial cells, plate reader, cherry-pick, two tests (AID 743267)", "type": "functional, cell-based"}, "[4]": {"assay": "Luminescence Cell-Based Dose Retest to Confirm Inhibitors of Cancer Stem Cells. [Related pubchem assays (depositor defined):AID2717, AID2721]", "type": "functional", "conditions": "Homo sapiens"}, "Kallikrein-7": {"target": "Kallikrein-7 (Homo sapiens, UniProt P49862)", "sequence (P49862 whole entry)": "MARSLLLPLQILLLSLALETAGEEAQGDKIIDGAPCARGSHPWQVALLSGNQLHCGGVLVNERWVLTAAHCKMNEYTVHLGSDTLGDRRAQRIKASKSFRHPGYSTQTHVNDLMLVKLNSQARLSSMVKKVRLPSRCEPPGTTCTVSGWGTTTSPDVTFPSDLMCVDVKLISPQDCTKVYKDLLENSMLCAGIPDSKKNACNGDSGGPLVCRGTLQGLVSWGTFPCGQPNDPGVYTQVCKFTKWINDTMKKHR", "assay": "Fluorescence Intensity-based biochemical primary high throughput dose response assay to identify activators of kallikrein-7 (K7) zymogen."}, "Protein Tat": {"target": "Protein Tat (Human immunodeficiency virus type 1 group M subtype B (isolate HXB2)(HIV-1), UniProt P04608)", "sequence (P04608 whole entry)": "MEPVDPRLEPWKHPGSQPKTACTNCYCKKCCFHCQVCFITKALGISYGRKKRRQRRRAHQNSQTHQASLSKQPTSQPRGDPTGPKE", "type": "functional"}, "cells [5]": {"assay": "cells", "type": "functional, cell-based"}, "[6]": {"target": "T1, Trace amine-associated receptor 1 (Homo sapiens, UniProt Q96RJ0)", "T1 sequence (Q96RJ0 whole entry)": "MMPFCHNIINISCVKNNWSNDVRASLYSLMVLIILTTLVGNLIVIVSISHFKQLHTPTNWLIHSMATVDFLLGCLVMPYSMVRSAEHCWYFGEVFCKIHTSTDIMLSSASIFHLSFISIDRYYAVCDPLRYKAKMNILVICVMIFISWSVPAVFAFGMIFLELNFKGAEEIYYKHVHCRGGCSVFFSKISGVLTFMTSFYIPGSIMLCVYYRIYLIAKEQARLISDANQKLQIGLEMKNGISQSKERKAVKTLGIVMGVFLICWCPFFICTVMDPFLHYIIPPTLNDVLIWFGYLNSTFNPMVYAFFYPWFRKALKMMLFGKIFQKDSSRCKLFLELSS", "assay": "Counterscreen for agonists of the human trace amine associated receptor 1 (hTAAR1): Fluorescence-based cell-based high throughput dose response assay to identify hTAAR1 agonist that also desensitize TAAR1 receptor response.", "type": "functional"}, "[7]": {"target": "T1, Trace amine-associated receptor 1", "assay": "Fluorescence-based cell-based high throughput dose response assay to identify agonists of the human trace amine associated receptor 1 (TAAR1).", "type": "functional"}, "cells [8]": {"assay": "cells", "type": "functional, cell-based", "remark": "listed apart in the source"}, "[9]": {"target": "RNA-editing ligase 1, mitochondrial (Trypanosoma brucei brucei, UniProt P86926)", "sequence (P86926 whole entry)": "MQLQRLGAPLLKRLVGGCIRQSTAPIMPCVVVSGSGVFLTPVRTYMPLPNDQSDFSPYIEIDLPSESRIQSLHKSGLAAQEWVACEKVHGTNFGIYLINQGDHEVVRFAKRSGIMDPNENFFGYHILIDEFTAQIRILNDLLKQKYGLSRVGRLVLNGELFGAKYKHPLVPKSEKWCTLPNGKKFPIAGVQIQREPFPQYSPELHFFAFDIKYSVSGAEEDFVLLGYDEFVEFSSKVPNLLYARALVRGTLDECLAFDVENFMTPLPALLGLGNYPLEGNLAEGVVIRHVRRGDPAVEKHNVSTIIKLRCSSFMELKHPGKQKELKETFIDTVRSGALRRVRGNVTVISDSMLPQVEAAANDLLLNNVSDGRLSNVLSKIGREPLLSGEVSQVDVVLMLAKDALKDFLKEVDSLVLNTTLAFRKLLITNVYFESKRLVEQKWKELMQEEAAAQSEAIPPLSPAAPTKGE", "assay": "TbREL1 ligase inhibitors, dose response, biochemical, fluorescence, Trypanosoma brucei (AID 1117295)", "type": "functional"}, "Albumin": {"target": "Albumin (Bos taurus, UniProt P02769)", "sequence (P02769 whole entry)": "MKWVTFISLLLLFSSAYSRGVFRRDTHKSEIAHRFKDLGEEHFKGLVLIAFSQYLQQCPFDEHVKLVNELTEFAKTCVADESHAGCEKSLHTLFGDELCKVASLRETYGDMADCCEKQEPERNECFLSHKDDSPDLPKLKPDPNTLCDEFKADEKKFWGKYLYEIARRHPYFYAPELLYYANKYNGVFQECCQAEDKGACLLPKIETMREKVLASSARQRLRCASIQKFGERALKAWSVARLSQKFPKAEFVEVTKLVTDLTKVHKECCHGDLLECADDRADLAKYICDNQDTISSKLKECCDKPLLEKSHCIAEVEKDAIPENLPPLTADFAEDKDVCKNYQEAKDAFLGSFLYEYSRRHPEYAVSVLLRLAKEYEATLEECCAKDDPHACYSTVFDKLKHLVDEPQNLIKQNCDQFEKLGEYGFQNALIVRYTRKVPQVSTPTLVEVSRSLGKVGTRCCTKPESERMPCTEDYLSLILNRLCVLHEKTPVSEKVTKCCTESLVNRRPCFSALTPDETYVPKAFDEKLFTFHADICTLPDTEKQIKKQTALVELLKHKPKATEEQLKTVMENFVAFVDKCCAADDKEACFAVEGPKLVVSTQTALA", "assay": "Counterscreen for inhibitors of T-cell receptor (TCR)-CD3 interaction: Fluorescence-based biochemical high throughput dose response assay to identify inhibitors of T-cell receptor (TCR)-CD3 interaction using a TAMRA-labeled BSA probe.", "type": "functional"}},
  "note": "Activity calls are given as the source filed them.",
  "data": [
    {"compound": "COc1cccc(-c2cc(C(=O)NC3=C(Cl)C(=O)c4ccccc4C3=O)ccc2OC)c1", "values": [
      {"measurement": "AC50", "setting": "[1]", "result": "> 70 µM (inactive)"},
      {"measurement": "AC50", "setting": "[2]", "result": "> 70 µM (inactive)"}
    ]},
    {"compound": "NS(=O)(=O)c1ccc(S(=O)(=O)N(CCc2ccccc2)Cc2ccccn2)cc1", "values": [
      {"measurement": "AC50", "setting": "[3]", "result": "< 0.0235 µM (active)"}
    ]},
    {"compound": "CN(C)CCn1c2ccccc2c2nc3ccc([N+](=O)[O-])cc3cc21", "values": [
      {"measurement": "AC50", "setting": "[4]", "result": "2.35 µM (active)"},
      {"measurement": "AC50", "setting": "[3]", "result": "55.7 µM (active)"}
    ]},
    {"compound": "COc1cccc2cccc(/C=N/n3cnnc3)c12", "values": [
      {"measurement": "EC50", "setting": "Kallikrein-7", "result": "> 69.5 µM (inactive)"}
    ]},
    {"compound": "CC(C)(Oc1ccc(Cl)cc1)C(=O)NCc1ccco1", "values": [
      {"measurement": "IC50", "setting": "Protein Tat", "result": "> 100 µM (active)"}
    ]},
    {"compound": "OC(COC(c1ccc(F)cc1)c1ccc(F)cc1)CN1CCCC(C(F)(F)F)C1", "note": "(centres undefined)", "values": [
      {"measurement": "IC50", "setting": "cells [5]", "result": "> 29.9 µM (inactive)"},
      {"measurement": "IC50", "setting": "[6]", "result": "8.46 µM (active)"},
      {"measurement": "EC50", "setting": "[7]", "result": "2.52 µM (active)"},
      {"measurement": "EC50", "setting": "cells [8]", "result": "> 29.9 µM (inactive)"}
    ]},
    {"compound": "Cc1cc(C)c(OCCCNCc2ccccc2)c(Br)c1", "values": [
      {"measurement": "IC50", "setting": "[9]", "result": "> 96.6 µM (inactive)"}
    ]},
    {"compound": "O=C(CCCN1C(=O)/C(=C/c2cccs2)SC1=S)NNC(=O)c1ccccc1O", "values": [
      {"measurement": "IC50", "setting": "Albumin", "result": "> 94.1 µM (inactive)"}
    ]},
    {"compound": "C=CCNC1=C(N2CCCCC2)C(=O)c2ccccc2C1=O", "values": [
      {"measurement": "AC50", "setting": "[1]", "result": "5.82 µM (active)"},
      {"measurement": "AC50", "setting": "[2]", "result": "29.1 µM (active)"}
    ]},
    {"compound": "NS(=O)(=O)c1ccc(CCNC(=O)C2CCC(CNS(=O)(=O)c3ccc(Br)s3)CC2)cc1", "note": "(centres undefined)", "values": [
      {"measurement": "IC50", "setting": "cells [5]", "result": "> 29.9 µM (inactive)"},
      {"measurement": "IC50", "setting": "[6]", "result": "1.16 µM (active)"},
      {"measurement": "EC50", "setting": "[7]", "result": "> 29.9 µM (inactive)"},
      {"measurement": "EC50", "setting": "cells [8]", "result": "> 29.9 µM (inactive)"}
    ]}
  ]
}
